Test results: patent US6492137B1, “Response element compositions and assays employing same” (The Salk Institute for Biological Studies, priority 1989, dated 2002)

Biological target: T1, RARα (Homo sapiens, UniProt P10276)
T1 sequence (P10276 1-462): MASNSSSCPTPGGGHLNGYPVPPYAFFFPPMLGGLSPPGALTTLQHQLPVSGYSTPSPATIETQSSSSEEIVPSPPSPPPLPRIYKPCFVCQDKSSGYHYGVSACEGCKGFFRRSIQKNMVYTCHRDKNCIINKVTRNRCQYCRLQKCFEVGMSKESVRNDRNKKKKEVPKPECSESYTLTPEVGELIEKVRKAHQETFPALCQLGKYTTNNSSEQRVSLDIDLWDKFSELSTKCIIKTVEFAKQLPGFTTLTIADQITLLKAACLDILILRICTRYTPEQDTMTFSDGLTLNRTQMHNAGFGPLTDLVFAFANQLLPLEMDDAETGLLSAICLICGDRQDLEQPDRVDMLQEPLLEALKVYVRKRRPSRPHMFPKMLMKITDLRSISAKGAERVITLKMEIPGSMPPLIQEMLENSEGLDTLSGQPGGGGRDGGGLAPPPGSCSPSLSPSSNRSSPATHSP
Test: ΔSV-CAT reporter cotransfection assay in CV-1 cells with RARα expression plasmid, ±RA
Format: cell-based
Design: expressed in transfected cells; host or cells: CV-1 (monkey kidney)
Settings: RA 1 μM
Source text: Receptor expression plasmids used in the following cotransfection assays have been described previously (pRShTRβ [see Thompson, et al., Proc. Natl. Acad. Sci. U.S.A. 86: 3494-3498 (1989)]; pRShRARα [see Giguere, et al., Nature 330: 624-629 (1987)]; pRShRARβ and pRshRARγ [see Ishikawa, et al., Mol. Endocrinol, 4: 837-844 (1990)]; and pRShVDR, [Schule, et al., Cell 61: 497-504 (1990)]. A basal reporter plasmid ΔSV-CAT was constructed by replacing the TK promoter in TK-CAT [Damm, et al., Nature 339: 593-597 (1989)] with the SphI-HindIII fragment of the SV40 early promoter. All of the recombinant CAT reporter plasmids used herein harbor a single copy of the indicated oligonucleotides at the unique HindIII site upstream of the SV40 promoter. Identity of the inserted oligonucleotides was confirmed by sequencing. To improve production of receptor proteins in COS cells, a new eukaryotic expression vector pCMX was prepared by modifying the plasmid CDM8 [Seed, B., Nature 329: 840-842 (1987)]. The CDM8 was cut with MluI and StuI in order to release the DNA fragment encoding the CMV/T7 promoter, SV40 small t intron/poly A signal, polyoma virus enhancer/origin, and SV40 enhancer/origin. The resulting fragment was ligated to a larger fragment of PvuII-digested PUC19. An internal deletion was introduced between unique BamHI and BclI sites present in the DCM8 portion. The stuffer sequence flanked by XbaI sites was replaced with a synthetic polylinker coding for 5′-KpnI/Asp718-EcoRV-BamHI -MscI-NheI-3′, followed by a stretch of 5′-[…]-3′ (SEQ ID NO:48) which can function as a universal termination signal for protein translation. The coding sequence of the luciferase [de Wet, et al., Mol. Cell. Biol. 7: 725-737 (1987)] and human TRβ, RARα, and VDR was placed in the polylinker region of the pCMX, generating pCMX-LUC, Pcmx-Htrβ, pCMX-hRARα, and pCMX-hVDR, respectively. The translation start site of the RARα was modified to […] by attaching the synthetic linker encoding a consensus translation start signal [Hollenberg, et al., Cell 55: 899-906 (1988)]. […]

## MHC-N: 23-nucleotide core of the wild-type sequence (MHC-TRE) (SEQ ID NO:14) (AGCTGGAGGTGACAGGAGGACAGCAAGCT; DNA, backbone not given here; further chemistry not fully specified)
  RA response (in words): not RA response
